For one experiment, the system named is MLC20 phosphorylation. As to the kind of experiment: MLC20 phosphorylation by urea gel/Western blotting in smooth muscle cells (SMC). The conditions noted are these: 24 hrs, 10 μM Dex, 10 μM ActD, 100 μM Chx, 2 μM Cam, 100 μM Eto. The experiment is classed as cell-based, pig. How it is done: NIH 3T3 fibroblasts were obtained from ATCC and were grown in Dulbecco's Modified Eagle Medium (DMEM) (Gibco BRL, Gaithersburg, Md.) supplemented with 10% FBS and 1% penicillin and streptomycin in a 37° C. incubator. 3T3 cells were treated with 500 nM actinomycin D in DMEM containing 0.5% FBS without antibiotics for the 0, 2, 4, 8, 16, or 24 hours. Cells were then washed with phosphate buffered saline (PBS). Floating cells were collected by centrifugation and combined with attached cells that were harvested by trypsinization. MLC20 phosphorylation was quantified be Western blotting with an anti-MLC20 antibody (FIG. 1). In short, the harvested cells were treated with ice cold 10% TCA, 10 mM DTT to precipitate the cellular proteins. The pellets were washed with acetone, dissolved in 9 M urea, 10 mM DTT, 20 mM Tris, pH 7.5 and separated using glycerol-urea polyacrylamide gel electrophoresis (PAGE). The proteins were transferred to nitrocellulose, the un-, mono-, and di-phosphorylated forms of MLC20 were identified using an affinity purified antibody to MLC20 and horseradish peroxidase-linked secondary antibody (Jackson ImmunoResearch, West Grove, Pa.). Protein bands were visualized with ECL reagent and the stoichiometry of phosphorylation (mol PO4/mol MLC20) was calculated as described (Obara et al., 1989, “Okadaic acid, a phosphatase inhibitor, produces a Ca2+ and calmodulin-independent contraction of lamb tracheal smooth muscle,” Pfluger's Archiv. 414: 134-138).
The stoichiometry of MLC20 phosphorylation (FIG. 1B, inset) was quantified using the urea gel/Western blotting method described above in untreated (Un) pig pulmonary artery smooth muscle cells (SMC) and SMC treated with 10 μM dexamethasone (Dex), 10 μM actinomycin D (ActD), 100 μM cycloheximide (Chx), 2 μM camptothecin (Cam), and 100 μM etoposide (Eto) for 24 hrs (mean+/−SE, n=3).
Next, in order to determine whether MLC-DP can trigger cell death, SMC were treated with ML-7 or KT5926, two inhibitors of MLCK (Nakanishi et al., 1990; Garcia, 1998; and Bain et al., 2003).
SMC cells were either treated with 10 μM cytochalasin D (CytD) or grown on the non-ionic substrate polyHema to prevent attachment.

The subject of the next experiment is MLC-P. Briefly: MLC-P by urea/glycerol gel immunoblotting in Mm5MT cells. The conditions noted are these: 10 μM ML-7, 30 μM etoposide or both, 16 h. Type of experiment: cell-based, mouse.
Experiment [1] has as its system precancerous mammary alveolar lesions (MAL). As to the kind of experiment: Mouse mammary gland organ culture, DMBA-induced mammary alveolar lesions. Type of experiment: cell-based, Balb/c mice. How it is done:
Mammary glands obtained from young Balb/c mice that are exposed to 7,12-dimethylbenz(a)anthracene (DMBA) for 24 h in culture to form precancerous lesions in 24 days. The procedure has been successfully used to determine efficacy of chemopreventive agents and is described in detail elsewhere. (Mehta et al. PPARγ ligand and retinoids prevent preneoplastic mammary lesions. J. Natl Cancer Instit 2000; 92:418-23). Briefly, 70 mammary glands from 35 Balb/c mice were divided into seven groups of 10 glands each and incubated in serum-free medium containing insulin, prolactin (5 μg/ml each), aldosterone and hydrocortisone (1 μg/ml each) for 10 days. DMBA (2 μg/ml) was included in the medium for 24 h on day 3. […] The glands were fixed in formalin and stained with alum carmine and evaluated for MAL. Percent inhibition was calculated by comparing the incidence in the control glands with the treated groups.
Mammary glands obtained from young Balb/c mice were exposed to DMBA as described above and MAL formation was monitored. […] (Mehta et al. PPARγ ligand and retinoids prevent preneoplastic mammary lesions. J. Natl Cancer Instit 2000; 92:418-23) In the present study, we evaluated effects of etoposide and ML-7 at 0.1, 1.0 and 10.0 μM concentrations on the development of MAL in organ culture. […] Percentage inhibition was calculated by comparing the incidence in the control glands with the treated groups. […]

Description for MLC-P: MLC-P protein was measured by urea/glycerol gel immunoblotting. Mm5MT or MLL cancer cells in 6-well plates were treated with ML-7 (10 or 5 μM, respectively) or etoposide (30 μM) or combination of two at indicated concentrations for 16 h. MLC-P in cancer cells was then quantified by the urea/glycerol gel-immunoblotting method. Briefly, cancer cells were fixed in 10% trichloroacetic acid (TCA) containing 10 mM dithiothreitol (DTT). Cell pellets were washed four times with acetone and protein was extracted by dissolving in buffer containing 9 M urea, 10 mM DTT and 20 mM Tris, pH 8.0. […] This antibody recognizes the unphosphorylated and phosphorylated forms of MLC20. Immunoreactive bands were visualized using enhanced chemiluminescence (ECL) detection reagents (Amersham Pharmacia Biotech, Piscataway, N.J.).
MLC-P was measured by urea/glycerol gel-immunoblotting as described above. Un and P identify unphosphorylated and phosphorylated MLC20, respectively. […] This experiment was repeated four times and the data from a representative experiment is shown.

For `COc1cc([C@@H]2c3cc4c(cc3[C@@H](O[C@@H]3O[C@@H]5CO[C@@H](C)O[C@H]5[C@H](O)[C@H]3O)[C@H]3COC(=O)[C@H]23)OCO4)cc(OC)c1O` [etoposide], in the experiment with MLC20 phosphorylation, the MLC20 phosphorylation result is recorded as “dephosphorylated”. For the same molecule, the MLC-P entry in the experiment on MLC-P is “decreased MLC-P”. Further, the MAL formation entry in experiment [1] (0.1 μM) was “did not affect MAL formation”. The “inhibition of incidence of MAL formation compared to control” value in experiment [1] (1 and 10 μM) is 40-46%.
